Measured values reported in the supplement of paper PMC11208160.
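Note: IS621 bridge recombinase in Escherichia coli cells against a fixed T5 target plasmid.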

Assay: recombinant UMI read abundance after kanamycin selection (control-corrected) (log10(CPM+1)); higher = more efficient recombination; extreme values may be limits of the assay; sequences stand for … in AGTGCAGAGAAAATCGGCCAGTTTTCTCTGCCTGCAGTCCGCATGCCGTGGGACCCCTTGGGTTCTAACCTGTTGCCTAGATTTATGCAGCGGACTGCCTTTCTCCCAAAGTGATAAACCGG…AGGTTGGTTTCACT; site = the 11-nt donor
Method: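 Pooled E. coli donor-specificity screen for the IS621 bridge recombinase. Each library member carries a reprogrammed 11-nt donor and a full-length LE bridge RNA expressed in cis from the natural promoter, with a paired donor-binding loop (8-nt LDG + 4-nt RDG) and a target-binding loop fixed to T5. It is co-electroporated with a T5 target plasmid; recombinase is induced with 0.07 mM IPTG and recombinants are selected on kanamycin. UMIs are counted as CPM, averaged over two biological replicates and corrected by the unselected control. Molecule = full bridge RNA written as DNA, built from the T5 scaffold: LDG = donor specificity nt 1-8, RDG = reverse complement of nt 8-11.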
In the case of “AAGGAATCATGGACCGGTTTTCCCGGTAATCCGTATTTGCG (site GAGGAATCTCG)”, the “recombinant UMI read abundance (log10)” value is reported as 2.74. For “CTGCGTACATGGACCGGTTTTCCCGGTAATCCGTATTTGAT (site CTGCGTACTAT)”, the “recombinant UMI read abundance (log10)” value was 1.81. In the case of “TAGGACTCATGGACCGGTTTTCCCGGTAATCCGTATTTGCG (site TAGGAATCTCG)”, the “recombinant UMI read abundance (log10)” value is reported as 1.98. In the case of “CCTACAGCATGGACCGGTTTTCCCGGTAATCCGTATTTGAT (site CCTATAGCTAT)”, the “recombinant UMI read abundance (log10)” value is reported as 0.002. With “TGGCAAGCATGGACCGGTTTTCCCGGTAATCCGTATTTGGC (site TGGCAAGCTGC)” the “recombinant UMI read abundance (log10)” value was 0.585. With “AGCTCAGCATGGACCGGTTTTCCCGGTAATCCGTATTTGGC (site AGCTCAGCTCC)” the “recombinant UMI read abundance (log10)” value was 0.00906. With “GAGTGATCATGGACCGGTTTTCCCGGTAATCCGTATTTGCT (site GAGTGATCTAG)” the “recombinant UMI read abundance (log10)” value was 2.62. In the case of “GGTACATCATGGACCGGTTTTCCCGGTAATCCGTATTTGTT (site GGTACCTCTAA)”, the “recombinant UMI read abundance (log10)” value is reported as 0.00401. With “GTTCTCTCATGGACCGGTTTTCCCGGTAATCCGTATTTGTA (site ATTCTCTCTTA)” the “recombinant UMI read abundance (log10)” value was 0.848. In the case of “ATTAGAACATGGACCGGTTTTCCCGGTAATCCGTATTTGAG (site ACTAGAACTCT)”, the “recombinant UMI read abundance (log10)” value is reported as 0.665. In the case of “GTTTCAGCATGGACCGGTTTTCCCGGTAATCCGTATTTGTG (site GTTTCAGCTCA)”, the “recombinant UMI read abundance (log10)” value is reported as 0.537. In the case of “CTTTAGACATGGACCGGTTTTCCCGGTAATCCGTATTTGAG (site CTTTAGACTCT)”, the “recombinant UMI read abundance (log10)” value is reported as 1.31. With “ACACATACATGGACCGGTTTTCCCGGTAATCCGTATTTGAC (site ACACATTCTGT)” the “recombinant UMI read abundance (log10)” value was 0.554. In the case of “ATCCTATCATGGACCGGTTTTCCCGGTAATCCGTATTTGAG (site ATCCTATCTCT)”, the “recombinant UMI read abundance (log10)” value is reported as 0.448. In the case of “CGCCGTCCATGGACCGGTTTTCCCGGTAATCCGTATTTGCT (site CGCCGTGCTAG)”, the “recombinant UMI read abundance (log10)” value is reported as 0. For “TAGGAATCATGGACCGGTTTTCCCGGTAATCCGTATTTGCC (site TAGGAATCTCG)”, the “recombinant UMI read abundance (log10)” value was 0.458. In the case of “GGACGCGCATGGACCGGTTTTCCCGGTAATCCGTATTTGGA (site GGACGCGCTTC)”, the “recombinant UMI read abundance (log10)” value is reported as 0.00923. In the case of “GGGCACCCATGGACCGGTTTTCCCGGTAATCCGTATTTGTT (site GGCCACCCTAA)”, the “recombinant UMI read abundance (log10)” value is reported as 0.161. With “CGCAGTACATGGACCGGTTTTCCCGGTAATCCGTATTTGCG (site CGCAGTACTCG)” the “recombinant UMI read abundance (log10)” value was 0.962. With “GTTCGGACATGGACCGGTTTTCCCGGTAATCCGTATTTGTG (site GTTCGGACTCA)” the “recombinant UMI read abundance (log10)” value was 0.706. For “ATTGGTACATGGACCGGTTTTCCCGGTAATCCGTATTTGCG (site ATTGGTACTCG)”, the “recombinant UMI read abundance (log10)” value was 1.35. In the case of “CGGGAACCATGGACCGGTTTTCCCGGTAATCCGTATTTGAT (site CAGGAACCTAT)”, the “recombinant UMI read abundance (log10)” value is reported as 0. For “GTCGAGTCATGGACCGGTTTTCCCGGTAATCCGTATTTGTT (site GTCGAGTCTAA)”, the “recombinant UMI read abundance (log10)” value was 2.79. With “GATTGGACATGGACCGGTTTTCCCGGTAATCCGTATTTGCC (site GATTGGACTGT)” the “recombinant UMI read abundance (log10)” value was 0. For “GAAGTGGCATGGACCGGTTTTCCCGGTAATCCGTATTTGGT (site GAAGTGGCTAC)”, the “recombinant UMI read abundance (log10)” value was 0.489. With “GTGGAGGCATGGACCGGTTTTCCCGGTAATCCGTATTTGTG (site TTGGAGGCTCA)” the “recombinant UMI read abundance (log10)” value was 0.821. For “ACCGCTACATGGACCGGTTTTCCCGGTAATCCGTATTTGCG (site ACCGCTACTCG)”, the “recombinant UMI read abundance (log10)” value was 1.01. For “CACTAGCCATGGACCGGTTTTCCCGGTAATCCGTATTTGCC (site CGCTAGCCTGG)”, the “recombinant UMI read abundance (log10)” value was 0. In the case of “GACAAACCATGGACCGGTTTTCCCGGTAATCCGTATTTGGA (site GACAAACCTGC)”, the “recombinant UMI read abundance (log10)” value is reported as 0. In the case of “CGAGCCTCATGGACCGGTTTTCCCGGTAATCCGTATTTGGC (site CGAGCCTCTGC)”, the “recombinant UMI read abundance (log10)” value is reported as 2.21. For “ATTCCATCATGGACCGGTTTTCCCGGTAATCCGTATTTGAC (site ATTCCATCTGT)”, the “recombinant UMI read abundance (log10)” value was 0.764. In the case of “AGCTCAGCATGGACCGGTTTTCCCGGTAATCCGTATTTGGG (site ACCTCAGCTCC)”, the “recombinant UMI read abundance (log10)” value is reported as 0.026. With “AGCCATTCATGGACCGGTTTTCCCGGTAATCCGTATTTGAC (site AGCCTTTCTGT)” the “recombinant UMI read abundance (log10)” value was 0. For “TGCTCAACATGGACCGGTTTTCCCGGTAATCCGTATTTGGC (site TGCTCAACTGC)”, the “recombinant UMI read abundance (log10)” value was 0. With “ACAGATCCATGGACCGGTTTTCCCGGTAATCCGTATTTGAC (site ACAAATCCTGT)” the “recombinant UMI read abundance (log10)” value was 0. With “AAGCCCGCATGGACCGGTTTTCCCGGTAATCCGTATTTGGG (site AAGCCCGCTCC)” the “recombinant UMI read abundance (log10)” value was 0.0203.
